Data published in paper PMC6753678, “Fueling Open Innovation for Malaria Transmission-Blocking Drugs: Hundreds of Molecules Targeting Early Parasite Mosquito Stages” (Frontiers in Microbiology, 2019).
Like-named read-outs stand apart in the source and are kept apart here.

Key:
HepG2 cells [1] = conditions: cited from earlier work
[2] = tested on: P. falciparum late stage (stages IV-V) gametocytes; assay: P. falciparum late stage gametocyte ATP depletion assay (Pf GC-ATP); conditions: 1: YES; 0: NO
[3] = tested on: P. falciparum female gametocytes; assay: P. falciparum female gametogenesis assay (Pf FGAA); conditions: 1: YES; 0: NO
[4] = tested on: P. falciparum female gametocytes; design: method as in Miguel-Blanco et al 2017; conditions: TCAMS screen comparison; ref Miguel-Blanco et al 2017; read-out: Pf FGAA IC50; cited from earlier work
HepG2 cells [5] = assay: HepG2 cytotoxicity assay; conditions: for IC50: read-out: HepG2 cytotoxicity assay IC50, dose response confirmation
Outline: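 Here viability after a 48 h compound incubation (37°C, humidified 5% CO2) is measured by fluorescence and expressed as percent inhibition, with doxorubicin at 50 μM and DMSO as the bounding controls.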

[6] = tested on: P. falciparum late stage (stages IV-V) gametocytes; design: method as in Almela et al 2016; conditions: ref Almela et al 2016, read-out: Pf GCT ATP IC50, cited from earlier work
[7] = tested on: 3D7-strain P. falciparum asexual parasites; assay: P. falciparum asexual growth inhibition assay (Pf GIA); type: cell-based, Plasmodium falciparum; conditions: dose response confirmation; read-out: Pf asexual growth inhibition assays IC50
Outline: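 LDH readout: absorbance at 650 nm after 10 min at room temperature with lactate/APAD/NBT/diaphorase mix on thawed plates. Cultures (0.25% parasitemia, 2% hematocrit) were treated 72 h at 37°C in low-oxygen gas. Inhibition was normalised to 50 μM chloroquine and DMSO; n=3 biological replicates.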

[8] = tested on: P. berghei ookinete development; conditions: for % inhibition, Replicate A / % inhibition, Replicate B: primary screen at 1 μM
[9] = value reported with the Pf GCT ATP screen, ref Almela et al 2016
[10] = HepG2 cytotoxicity unified across the three screens
[11] = value reported with the Pf FGAA screen, ref Miguel-Blanco et al 2017
[12] = read-out: Pb ODA IC50, this manuscript
[13] = read-out: Pb Ookinete development assay IC50, dose response confirmation
[14] = HepG2 values of the three screens unified

Row | Compound | HepG2 cytoxicity (HepG2 cells [1]; [9]) [µM] | Is compound selective in assay? Pf GC-ATP active? [2] | Is compound selective in assay? Pf FGAA active? [3] | IC50 [4] [µM] | Unified cytotox (HepG2 cells [5]; [10]) [µM] | IC50 ([6]; TCAMS screen comparison) [µM] | HepG2 cytoxicity (HepG2 cells [1]; [11]) [µM] | HepG2 cytoxicity (Pf GCT ATP screen) (HepG2 cells [1]; ref Almela et al 2016) [µM] | IC50 [7] [µM] | Is compound selective in assay? Pb ODA active? [8] | % inhibition, Replicate A [8] [%] | % inhibition, Replicate B [8] [%] | IC50 [8, 12] [µM] | IC50 [8, 13] [µM] | HepG2 cytoxicity (Pb ODA, this manuscript) (HepG2 cells [5]) [µM] | Unified cytotox (HepG2 cells [5]; [14]) [µM] | IC50 (HepG2 cells [5]) [µM] | IC50 [6] [µM] | Is compound selective in assay? Pb ODA active? ([8]; 1: YES, 0: NO)
1 | CNC(=S)NN=C(C)c1ccccn1 [TCMDC-123475] | >25 | 1 (1: YES) | 1 (1: YES) | 0.014 | 25.00 | 1.17 |  |  |  |  |  |  |  |  |  |  |  |  | 
2 | COc1ccc(C[C@H](N)C(=O)N[C@H]2[C@@H](O)[C@H](n3cnc4c(N(C)C)ncnc43)O[C@@H]2CO)cc1 [TCMDC-123493] | 2.95 | 0 (0: NO) | 0 (0: NO) | 0.29 | 2.37 | 0.56 | 1.80 |  |  |  |  |  |  |  |  |  |  |  | 
3 | CCN(CC)CCCn1c(N)c(-c2nc3ccccc3[nH]2)c2nc(C#N)c(C#N)nc21 [TCMDC-123680] | 8.7 | 1 (1: YES) | 0 (0: NO) | 0.74 | 6.48 | 0.14 | 4.27 |  |  |  |  |  |  |  |  |  |  |  | 
4 | COc1cc2nc(N3CCN(c4nc(N)c5cc(OC)c(OC)cc5n4)CC3)nc(N)c2cc1OC [TCMDC-123865] | >25 | 1 (1: YES) | 1 (1: YES) | 0.58 | 52.49 | 0.26 | 52.49 |  |  |  |  |  |  |  |  |  |  |  | 
5 | [O-][s+]1c(Cl)c(-c2ccc(Cl)cc2)c2ccc(Cl)cc21 (stereo not shown) [TCMDC-124011] | 12.8 | 1 (1: YES) | 1 (1: YES) | 0.0366 | 12.08 | 0.02 | 11.35 |  |  |  |  |  |  |  |  |  |  |  | 
6 | C=CCN(C(=O)c1ccc(Cl)c([N+](=O)[O-])c1)c1nc(-c2ccccc2)cs1 [TCMDC-124436] | >25 | 1 (1: YES) | 1 (1: YES) | 0.13 | 100.00 | 0.11 | >100 |  |  |  |  |  |  |  |  |  |  |  | 
7 | Cc1sc2ncnc(Sc3nnc(N)s3)c2c1C [TCMDC-124542] | >25 | 1 (1: YES) | 1 (1: YES) | 0.77 | 36.31 | 0.3 | 36.31 |  |  |  |  |  |  |  |  |  |  |  | 
8 | COc1ccc(OC)c(-c2cccc(-c3cccc(NC(=O)c4ccc([N+](=O)[O-])o4)c3)n2)c1 [TCMDC-124799] | 6.15 | 0 (0: NO) | 0 (0: NO) | 0.96 | 4.89 | 0.78 | 3.63 |  |  |  |  |  |  |  |  |  |  |  | 
9 | O=C(c1ccc([N+](=O)[O-])o1)N1CCC(Cc2ccc(C(F)(F)F)cc2)CC1 [TCMDC-124805] | 14.11 | 1 (1: YES) | 1 (1: YES) | 0.16 | 20.58 | 0.26 | 27.05 |  |  |  |  |  |  |  |  |  |  |  | 
10 | CCOc1ccc2nc3cc(NC(=O)c4ccco4)ccc3c(N)c2c1 [TCMDC-125004] | 10.3 | 1 (1: YES) | 0 (0: NO) | 4.55 | 17.72 | 0.19 | 25.15 |  |  |  |  |  |  |  |  |  |  |  | 
11 | Cc1ccccc1OCC(O)CNC1CCC(NCC(O)COc2ccccc2C)CC1 (stereo not shown) [TCMDC-125142] | 3.78 | 1 (1: YES) | 0 (0: NO) | 1.11 | 3.93 | 0.14 | 4.07 |  |  |  |  |  |  |  |  |  |  |  | 
12 | Cc1c(Cl)cccc1N=C(S)NN=Cc1ccccn1 [TCMDC-125487] | >25 | 1 (1: YES) | 1 (1: YES) | 0.028 | 100.00 | 0.27 | >100 |  |  |  |  |  |  |  |  |  |  |  | 
13 | COc1ccc(C[C@H]2NC[C@H](O)[C@H]2OC(C)=O)cc1 [TCMDC-125504] |  | 0 (0: NO) |  |  |  |  |  | 0.19 | 0.054 | 0 (key: 1: YES; 0: NO) | 102.72 | 96.40 | 0.21 | 0.215 | 2.29 | 1.24 | 2.29 | 0.17 | 
14 | Fc1ccc(NC(S)=NN=Cc2ccccn2)cc1 [TCMDC-125521] | 23.35 | 1 (1: YES) | 1 (1: YES) | 0.0271 | 100.00 | 0.12 | >100 |  |  |  |  |  |  |  |  |  |  |  | 
15 | SC(=Nc1ccc(Cl)c(Cl)c1)NN=Cc1ccccn1 [TCMDC-125522] | 9.1 | 1 (1: YES) | 1 (1: YES) | 0.08 | 6.28 | 0.07 | 3.47 |  |  |  |  |  |  |  |  |  |  |  | 
16 | c1ccc2sc(Sc3ncnc4sccc34)nc2c1 [TCMDC-125539] | >25 | 1 (1: YES) | 1 (1: YES) | 0.14 | 100.00 | 0.5 | >100 |  |  |  |  |  |  |  |  |  |  |  | 
17 | S=C(NN=Cc1ccccn1)NC1CC2C=CC1C2 (stereo not shown) [TCMDC-125752] | 0.7 | 0 (0: NO) | 1 (1: YES) | 0.0153 | 0.70 | 0.11 |  |  |  |  |  |  |  |  |  |  |  |  | 
18 | COCCn1c(-c2cccc(Cl)c2)nn(-c2ccc([N+](=O)[O-])cc2C#N)c1=S [TCMDC-134719] |  | 1 (1: YES) |  |  |  |  |  | >25 | 0.403 |  | 64.09 | 78.69 | 1.84 | 1.84 |  | 100.00 | 100 | 2.78 | 1 (1: YES)
19 | CCOCn1c(-c2ccccc2)cc2c3c(N)nc(N)nc3ccc21 [TCMDC-137979] |  | 0 (0: NO) |  |  |  |  |  | 5.65 | 0.18 |  | 30.79 | 81.58 | 7.5 | 7.5 | 4.79 | 5.22 | 4.79 | 1.3 | 0 (0: NO)
20 | C=CC(C)C1OC(=O)c2cc(OC)cc(OC)c21 (stereo not shown) [TCMDC-138676] |  | 0 (0: NO) |  |  |  |  |  | 0.8 | 0.259 |  | 44.05 | 73.82 | 0.49 | 0.489 | 1.22 | 1.01 | 1.22 | 0.4 | 0 (0: NO)
21 | Cc1cc(F)ccc1-c1nc(NCC(O)CNCCc2ccccc2)nc2c1ccc(=O)n2-c1c(F)cccc1F.O=C(O)C(F)(F)F (stereo not shown) [TCMDC-141784] |  | 1 (1: YES) |  |  |  |  |  | 8.47 | 0.451 |  | 54.07 | 33.72 | 3.85 | 3.85 | 14.79 | 11.63 | 14.8 | 0.23 | 0 (0: NO)
22 | O=c1c(Br)ccccc1Br [TCMDC-142246] |  | 1 (1: YES) |  |  |  |  |  | 12.6 | 2.07 |  | 52.58 | 94.32 | 0.93 | 0.933 | 14.79 | 13.70 | 14.8 | 0.21 | 1 (1: YES)
